The record followed here is patent publication US8722849B2, “Polypeptides” (Novo Nordisk A/S, priority 2011, dated 2014).

The data set is described as follows: Assay (III) ThT fibrillation assay for physical stability. The format is physicochemical. Conditions: ThT fibrillation assay. The source says: ASSAY (III)—ThT Fibrillation Assays for the Assessment of Physical Stability of Protein formulations Low physical stability of a polypeptide may lead to amyloid fibril formation, which is observed as well-ordered, thread-like macromolecular structures in the sample eventually resulting in gel formation. This has traditionally been measured by visual inspection of the sample. However, that kind of measurement is very subjective and depending on the observer. Therefore, the application of a small molecule indicator probe is much more advantageous. Thioflavin T (ThT) is such a probe and has a distinct fluorescence signature when binding to fibrils [Naiki et al. (1989) Anal. Biochem. 177, 244-249; LeVine (1999) Methods. Enzymol. […], 274-284]. The time course for fibril formation can be described by a sigmoidal curve with the following expression [Nielsen et al. (2001) Biochemistry 40, 6036-6046]: [formula] Here, F is the ThT fluorescence at the time t. The constant t0 is the time needed to reach 50% of maximum fluorescence. […] Few of those intermediates nucleate to form a template onto which further intermediates may assembly and the fibrillation proceeds. The lag-time corresponds to the interval in which the critical mass of nucleus is built up and the apparent rate constant is the rate with which the fibril itself is formed. Sample Preparation Samples were prepared freshly before each assay. Each sample composition is described in each example. The pH of the sample was adjusted to the desired value using appropriate amounts of concentrated NaOH and HClO4 or HCl. Thioflavin T was added to the samples from a stock solution in H2O to a final concentration of 1 μM. Sample aliquots of 200 μl were placed in a 96 well microtiter plate (Packard OptiPlate™-96, white polystyrene). Usually, four or eight replica of each sample (corresponding to one test condition) were placed in one column of wells. The plate was sealed with Scotch Pad (Qiagen). Incubation and Fluorescence Measurement Incubation at given temperature, shaking and measurement of the ThT fluorescence emission were done in a Fluoroskan Ascent FL fluorescence platereader or Varioskan platereader (Thermo Labsystems). The temperature was adjusted to 37° C. The orbital shaking was adjusted to 960 rpm with an amplitude of 1 mm in all the presented data. Fluorescence measurement was done using excitation through a 444 nm filter and measurement of emission through a 485 nm filter. Each run was initiated by incubating the plate at the assay temperature for 10 min. The plate was measured every 20 minutes for a desired period of time. Between each measurement, the plate was shaken and heated as described. Data Handling The measurement points were saved in Microsoft Excel format for further processing and curve drawing and fitting was performed using GraphPad Prism. The background emission from ThT in the absence of fibrils was negligible. The data points are typically a mean of four or eight samples and shown with standard deviation error bars. Only data obtained in the same experiment (i.e. samples on the same plate) are presented in the same graph ensuring a relative measure of fibrillation between experiments. The data set may be fitted to Eq. (1). However, since full sigmodial curves in this case are not always achieved during the measurement time, the degree of fibrillation is expressed as ThT fluorescence tabulated as the mean of the samples and shown with the standard deviation at various time points. Measurement of Initial and Final Concentrations The polypeptide concentration in each of the tested formulations were measured both before application in the ThT fibrillation assay (“Initial”) and after completion of the ThT fibrillation (“After ThT assay”). Concentrations were determined by reverse HPLC methods using a pramlintide standard as a reference. Before measurement after completion 150 μl was collected from each of the replica and transferred to an Eppendorf tube. […]

The structures appear in SMILES notation. Starred links: 1 amine or outer side, 2 acyl side, 3 side chain; linkers in the order of their positions; H or OH if unused. Positions of bridges follow the written chain, without caps; N, C: chain ends. Residues, ends and D or L forms follow the SMILES beside them. Groups on a side chain read outwards from the residue. *: point of attachment. C20 diacid = O=C(O)CCCCCCCCCCCCCCCCCCC(=O)*; C18 diacid = O=C(O)CCCCCCCCCCCCCCCCC(=O)*; γGlu = O=C(O)[C@H](CCC(=O)[*:2])N[*:1]; AEEA = NCCOCCOCC(=O)O

Consider `CC[C@H](C)[C@H](NC(=O)[C@H](CCCCNC(=O)COCCOCCNC(=O)COCCOCCNC(=O)CC[C@H](NC(=O)CCCCCCCCCCCCCCCCC(=O)O)C(=O)O)NC(=O)CNC(=O)[C@H](Cc1ccccc1)NC(=O)[C@H](CC(N)=O)NC(=O)[C@H](CC(N)=O)NC(=O)[C@H](CO)NC(=O)[C@H](CO)NC(=O)[C@H](Cc1c[nH]cn1)NC(=O)[C@@H](NC(=O)[C@H](CC(C)C)NC(=O)[C@H](Cc1ccccc1)NC(=O)[C@H](CCC(=O)O)NC(=O)[C@H](C)NC(=O)[C@H](CC(C)C)NC(=O)[C@H](CCCNC(=N)N)NC(=O)[C@H](CCC(N)=O)NC(=O)[C@@H](NC(=O)[C@H](C)NC(=O)[C@@H]1CSSC[C@H](NC(=O)[C@@H](N)CCCCN)C(=O)N[C@@H](CC(N)=O)C(=O)N[C@@H]([C@@H](C)O)C(=O)N[C@@H](C)C(=O)N[C@@H]([C@@H](C)O)C(=O)N1)[C@@H](C)O)C(C)C)C(=O)N[C@@H](CC(C)C)C(=O)N1CCC[C@H]1C(=O)N1CCC[C@H]1C(=O)N[C@H](C(=O)N[C@@H](CC(N)=O)C(=O)N[C@H](C(=O)NCC(=O)N[C@@H](CO)C(=O)N[C@@H](CC(N)=O)C(=O)N[C@H](C(=O)N[C@@H](Cc1ccc(O)cc1)C(N)=O)[C@@H](C)O)C(C)C)[C@@H](C)O` [Example 126, N-epsilon25-[2-(2-{2-[2-(2-{2-[(S)-4-Carboxy-4-(17-carboxyheptadecanoylamino)butyrylamino]ethoxy}ethoxy)acetylamino]ethoxy}ethoxy)acetyl]-[Glu14,Lys25]-pramlintide] (H-KCNTATCATQRLAEFLVHSSNNFGK([AEEA-AEEA-γGlu-C18 diacid])ILPPTNVGSNTY-NH2; disulfide 2-7 (inferred)), for which the “ThT pH 4.0 lag time (h)” value was 10 h.
For the compound `CC(C)C[C@H](NC(=O)[C@H](CCCNC(=N)N)NC(=O)[C@H](CCC(N)=O)NC(=O)[C@@H](NC(=O)[C@H](C)NC(=O)[C@@H]1CSSC[C@H](NC(=O)[C@@H](N)CCCCNC(=O)CC[C@H](NC(=O)CCCCCCCCCCCCCCCCCCC(=O)O)C(=O)O)C(=O)N[C@@H](CC(N)=O)C(=O)N[C@@H]([C@@H](C)O)C(=O)N[C@@H](C)C(=O)N[C@@H]([C@@H](C)O)C(=O)N1)[C@@H](C)O)C(=O)N[C@@H](C)C(=O)N[C@@H](CCC(=O)O)C(=O)N[C@@H](Cc1ccccc1)C(=O)N[C@@H](CC(C)C)C(=O)N[C@@H](Cc1c[nH]cn1)C(=O)N[C@@H](Cc1c[nH]cn1)C(=O)N[C@@H](CO)C(=O)N[C@@H](CO)C(=O)N[C@@H](CCC(N)=O)C(=O)N[C@@H](CC(N)=O)C(=O)N[C@@H](Cc1ccccc1)C(=O)NCC(=O)N[C@@H](C)C(=O)N1CCC[C@H]1C(=O)N[C@@H](CC(C)C)C(=O)N[C@@H](CO)C(=O)N[C@@H](CO)C(=O)N[C@H](C(=O)N[C@@H](CC(N)=O)C(=O)N[C@H](C(=O)NCC(=O)N[C@@H](CO)C(=O)N[C@@H](CC(N)=O)C(=O)N[C@H](C(=O)N1CCC[C@H]1C(N)=O)[C@@H](C)O)C(C)C)[C@@H](C)O` [Example 151, N-epsilon1-[(S)-4-Carboxy-4-(19-carboxynonadecanoylamino)butyryl]-[Glu14,His17,Gln21,Ala25,Pro26,Ser28,Ser29,Pro37]-pramlintide] (H-K([γGlu-C20 diacid])CNTATCATQRLAEFLHHSSQNFGAPLSSTNVGSNTP-NH2; disulfide 2-7 (inferred)), the “ThT pH 4.0 lag time (h)” value is reported as 9 h.
